Here are results for one substance from JP2013241470A, “ペプチド含有組成物” (Kikkoman Corp, priority 2013, dated 2013).

The test addresses T1, ACE (angiotensin converting enzyme) (アンジオテンシン変換酵素) (Oryctolagus cuniculus, UniProt P12822).
T1 construct: 0.3U/ml ACE(ウサギ肺由来、シグマ製); purchased Sigma (シグマ); host or cells: rabbit lung tissue
T1 sequence (P12822 34-1310): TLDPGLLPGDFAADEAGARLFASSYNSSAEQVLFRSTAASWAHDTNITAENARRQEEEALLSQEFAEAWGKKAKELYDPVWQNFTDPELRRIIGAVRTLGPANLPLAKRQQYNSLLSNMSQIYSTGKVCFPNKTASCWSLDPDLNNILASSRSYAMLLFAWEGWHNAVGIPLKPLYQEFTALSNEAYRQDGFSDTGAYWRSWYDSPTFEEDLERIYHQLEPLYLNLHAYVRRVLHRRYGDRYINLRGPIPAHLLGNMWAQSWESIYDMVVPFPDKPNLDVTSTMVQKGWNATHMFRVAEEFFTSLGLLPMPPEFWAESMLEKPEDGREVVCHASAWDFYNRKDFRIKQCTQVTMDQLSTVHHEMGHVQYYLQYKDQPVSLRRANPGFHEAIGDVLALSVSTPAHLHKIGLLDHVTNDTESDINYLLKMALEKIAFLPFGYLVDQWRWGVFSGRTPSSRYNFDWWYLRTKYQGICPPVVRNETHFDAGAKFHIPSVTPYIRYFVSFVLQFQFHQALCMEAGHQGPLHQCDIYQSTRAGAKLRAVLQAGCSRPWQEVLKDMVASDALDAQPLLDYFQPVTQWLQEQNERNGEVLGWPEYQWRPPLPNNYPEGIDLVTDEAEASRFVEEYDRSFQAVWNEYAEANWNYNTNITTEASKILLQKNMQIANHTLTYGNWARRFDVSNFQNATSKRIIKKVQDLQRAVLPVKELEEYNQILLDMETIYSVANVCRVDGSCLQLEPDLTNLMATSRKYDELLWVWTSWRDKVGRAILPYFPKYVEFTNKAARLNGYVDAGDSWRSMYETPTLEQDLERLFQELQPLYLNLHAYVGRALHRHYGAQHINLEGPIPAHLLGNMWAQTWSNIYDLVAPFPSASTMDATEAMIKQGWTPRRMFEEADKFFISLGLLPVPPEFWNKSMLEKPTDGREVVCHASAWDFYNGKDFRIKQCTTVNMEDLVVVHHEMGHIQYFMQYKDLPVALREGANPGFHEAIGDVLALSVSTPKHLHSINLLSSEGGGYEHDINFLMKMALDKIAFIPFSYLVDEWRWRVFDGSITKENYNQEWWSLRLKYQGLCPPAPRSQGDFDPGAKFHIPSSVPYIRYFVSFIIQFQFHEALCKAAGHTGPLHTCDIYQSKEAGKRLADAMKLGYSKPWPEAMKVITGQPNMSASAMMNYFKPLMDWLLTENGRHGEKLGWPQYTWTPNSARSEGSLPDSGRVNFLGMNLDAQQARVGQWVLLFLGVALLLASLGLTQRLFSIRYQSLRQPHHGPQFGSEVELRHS
As to the kind of experiment: ACE inhibitory activity (modified Cushman method, Hippuryl-His-Leu substrate). It counts as biochemical, rabbit.

Consider Tyr−Thr, for which the ACE inhibitory activity entry runs as follows: (chemically synthesised peptide, compared with known soybean-derived ACE inhibitory peptides (Table 1, not visible), ACE from rabbit lung, 37 °C, 30 min, pH 8.3) “既知のペプチドと比較して充分に強い活性を有している”; (chromatographic fractions during isolation from composition 1 (組成物1)) “矢印で示したピークにのみ活性が見られた”.
